System: NOMO1
Test: cell viability relative to DMSO control; higher = less cytotoxic
Details: 48 h
In short: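 Library compounds in DMSO were pin-dosed into 1536-well plates (5 μl) holding NOMO1 or SEM (500 cells/well) or P12-Ichikawa (1000 cells/well) leukemia cells, across an 11-point threefold series of 47 μM to 0.79 nM. Each cell line had been adapted for at least four passages in each medium. CellTiter-Glo One luminescence was read after 48 h at 37°C. Viability is the per-plate percentage relative to DMSO wells, with cell-free wells as background.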

[1] = HPLM + 10% dialyzed FBS, 0.000781 µM
[2] = HPLM + 10% dialyzed FBS, 0.00234 µM
[3] = HPLM + 10% dialyzed FBS, 0.00702 µM
[4] = HPLM + 10% dialyzed FBS, 0.0211 µM
[5] = HPLM + 10% dialyzed FBS, 0.0632 µM
[6] = HPLM + 10% dialyzed FBS, 0.19 µM
[7] = HPLM + 10% dialyzed FBS, 0.569 µM
[8] = HPLM + 10% dialyzed FBS, 1.71 µM
[9] = HPLM + 10% dialyzed FBS, 5.12 µM
[10] = HPLM + 10% dialyzed FBS, 15.4 µM
[11] = HPLM + 10% dialyzed FBS, 46.1 µM
[12] = RPMI 5 mM glucose + 10% FBS, 0.000781 µM
[13] = RPMI 5 mM glucose + 10% FBS, 0.00234 µM
[14] = RPMI 5 mM glucose + 10% FBS, 0.00702 µM
[15] = RPMI 5 mM glucose + 10% FBS, 0.0211 µM
[16] = RPMI 5 mM glucose + 10% FBS, 0.0632 µM
[17] = RPMI 5 mM glucose + 10% FBS, 0.19 µM
[18] = RPMI 5 mM glucose + 10% FBS, 0.569 µM
[19] = RPMI 5 mM glucose + 10% FBS, 1.71 µM
[20] = RPMI 5 mM glucose + 10% FBS, 5.12 µM
[21] = RPMI 5 mM glucose + 10% FBS, 15.4 µM
[22] = RPMI 5 mM glucose + 10% FBS, 46.1 µM
[23] = RPMI 5 mM glucose + 10% dialyzed FBS, 0.000781 µM
[24] = RPMI 5 mM glucose + 10% dialyzed FBS, 0.00234 µM
[25] = RPMI 5 mM glucose + 10% dialyzed FBS, 0.00702 µM
[26] = RPMI 5 mM glucose + 10% dialyzed FBS, 0.0211 µM
[27] = RPMI 5 mM glucose + 10% dialyzed FBS, 0.0632 µM
[28] = RPMI 5 mM glucose + 10% dialyzed FBS, 0.19 µM
[29] = RPMI 5 mM glucose + 10% dialyzed FBS, 0.569 µM
[30] = RPMI 5 mM glucose + 10% dialyzed FBS, 1.71 µM
[31] = RPMI 5 mM glucose + 10% dialyzed FBS, 5.12 µM
[32] = RPMI 5 mM glucose + 10% dialyzed FBS, 15.4 µM
[33] = RPMI 5 mM glucose + 10% dialyzed FBS, 46.1 µM

## CN(C)CC[C@H](c1ccc(Cl)cc1)c1ccccn1
[1]
  cell viability: 70.4%
[2]
  cell viability: 74%
[3]
  cell viability: 78.8%
[4]
  cell viability: 77.9%
[5]
  cell viability: 75.7%
[6]
  cell viability: 77.9%
[7]
  cell viability: 88.3%
[8]
  cell viability: 79.7%
[9]
  cell viability: 81%
[10]
  cell viability: 78.8%
[11]
  cell viability: 87.1%
[12]
  cell viability: 75%
[13]
  cell viability: 76.5%
[14]
  cell viability: 77.1%
[15]
  cell viability: 80.3%
[16]
  cell viability: 81.4%
[17]
  cell viability: 81.2%
[18]
  cell viability: 80.7%
[19]
  cell viability: 79.6%
[20]
  cell viability: 83.2%
[21]
  cell viability: 79.9%
[22]
  cell viability: 83.7%
[23]
  cell viability: 74%
[24]
  cell viability: 88.2%
[25]
  cell viability: 83.1%
[26]
  cell viability: 85.9%
[27]
  cell viability: 81.5%
[28]
  cell viability: 86.5%
[29]
  cell viability: 95.7%
[30]
  cell viability: 89.5%
[31]
  cell viability: 89.5%
[32]
  cell viability: 91%
[33]
  cell viability: 82.8%

## [O-]C(=O)C1=C(C(=C(Cl)C(=C1Cl)Cl)Cl)C/2=C/3\C=C(I)/C(=O)/C(=C3OC4=C2C=C(I)C(=C4I)[O-])I
[1]
  cell viability: 101%
[2]
  cell viability: 136%
[3]
  cell viability: 116%
[4]
  cell viability: 122%
[5]
  cell viability: 140%
[6]
  cell viability: 129%
[7]
  cell viability: 143%
[8]
  cell viability: 133%
[9]
  cell viability: 130%
[10]
  cell viability: 113%
[11]
  cell viability: 102%

## COC1=C2C[C@@H](C)C[C@H](OC)[C@H](O)[C@@H](C)/C=C(\C)[C@H](OC(N)=O)[C@@H](OC)/C=C/C=C(\C)C(=O)NC(=CC1=O)C2=O
[12]
  cell viability: 108%
[13]
  cell viability: 119%
[14]
  cell viability: 104%
[15]
  cell viability: 119%
[16]
  cell viability: 109%
[17]
  cell viability: 111%
[18]
  cell viability: 109%
[19]
  cell viability: 110%
[20]
  cell viability: 101%
[21]
  cell viability: 80.4%
[22]
  cell viability: 4.86%
[23]
  cell viability: 112%
[24]
  cell viability: 111%
[25]
  cell viability: 123%
[26]
  cell viability: 113%
[27]
  cell viability: 115%
[28]
  cell viability: 114%
[29]
  cell viability: 113%
[30]
  cell viability: 121%
[31]
  cell viability: 123%
[32]
  cell viability: 81.3%
[33]
  cell viability: 5.45%

## CC[C@]12\C=C/CN3CC[C@]4([C@@H](N(C)C5=CC(=C(C=C45)[C@]6(C[C@H]7C[C@H](CN(C7)CC8=C6[NH]C9=C8C=CC=C9)C(C)(F)F)C(=O)OC)OC)[C@](O)([C@@H]1OC(C)=O)C(=O)OC)[C@H]23
[1]
  cell viability: 102%
[2]
  cell viability: 102%
[3]
  cell viability: 97.5%
[4]
  cell viability: 72.8%
[5]
  cell viability: 28.2%
[6]
  cell viability: 28.1%
[7]
  cell viability: 36%
[8]
  cell viability: 38.6%
[9]
  cell viability: 36.8%
[10]
  cell viability: 36.1%
[11]
  cell viability: 28.7%
[12]
  cell viability: 95%
[13]
  cell viability: 96.9%
[14]
  cell viability: 91.9%
[15]
  cell viability: 85.2%
[16]
  cell viability: 24.5%
[17]
  cell viability: 18.5%
[18]
  cell viability: 21.6%
[19]
  cell viability: 22.3%
[20]
  cell viability: 22.3%
[21]
  cell viability: 23.7%
[22]
  cell viability: 20.1%
[23]
  cell viability: 91.5%
[24]
  cell viability: 92.4%
[25]
  cell viability: 91.6%
[26]
  cell viability: 93.7%
[27]
  cell viability: 57.5%
[28]
  cell viability: 30.6%
[29]
  cell viability: 24.2%
[30]
  cell viability: 26.3%
[31]
  cell viability: 27.5%
[32]
  cell viability: 26.8%
[33]
  cell viability: 20.8%

## c1ccc(CNc2nc(N3CCOc4ccccc43)nc3c2CCCC3)cc1
[1]
  cell viability: 78.1%
[2]
  cell viability: 97.2%
[3]
  cell viability: 110%
[4]
  cell viability: 103%
[5]
  cell viability: 110%
[6]
  cell viability: 93.4%
[7]
  cell viability: 103%
[8]
  cell viability: 111%
[9]
  cell viability: 107%
[10]
  cell viability: 100%
[11]
  cell viability: 97.8%
[12]
  cell viability: 100%
[13]
  cell viability: 97.7%
[14]
  cell viability: 109%
[15]
  cell viability: 94.9%
[16]
  cell viability: 99.9%
[17]
  cell viability: 106%
[18]
  cell viability: 106%
[19]
  cell viability: 107%
[20]
  cell viability: 106%
[21]
  cell viability: 110%
[22]
  cell viability: 90.2%
[23]
  cell viability: 102%
[24]
  cell viability: 103%
[25]
  cell viability: 112%
[26]
  cell viability: 105%
[27]
  cell viability: 112%
[28]
  cell viability: 111%
[29]
  cell viability: 114%
[30]
  cell viability: 109%
[31]
  cell viability: 109%
[32]
  cell viability: 97.6%
[33]
  cell viability: 98.8%

## NC(=O)c1cccc2nc(-c3ccc([C@H]4CCCN4)cc3F)[nH]c12
[1]
  cell viability: 112%
[2]
  cell viability: 120%
[3]
  cell viability: 108%
[4]
  cell viability: 133%
[5]
  cell viability: 116%
[6]
  cell viability: 131%
[7]
  cell viability: 128%
[8]
  cell viability: 106%
[9]
  cell viability: 119%
[10]
  cell viability: 107%
[11]
  cell viability: 81.5%
[12]
  cell viability: 95.8%
[13]
  cell viability: 95.4%
[14]
  cell viability: 104%
[15]
  cell viability: 114%
[16]
  cell viability: 125%
[17]
  cell viability: 107%
[18]
  cell viability: 117%
[19]
  cell viability: 107%
[20]
  cell viability: 101%
[21]
  cell viability: 105%
[22]
  cell viability: 89.6%
[23]
  cell viability: 102%
[24]
  cell viability: 112%
[25]
  cell viability: 117%
[26]
  cell viability: 121%
[27]
  cell viability: 118%
[28]
  cell viability: 114%
[29]
  cell viability: 132%
[30]
  cell viability: 130%
[31]
  cell viability: 120%
[32]
  cell viability: 109%
[33]
  cell viability: 81.3%

## COc1ccc(Nc2nccc(NCCO)n2)cc1
[1]
  cell viability: 75.3%
[2]
  cell viability: 86.5%
[3]
  cell viability: 84.9%
[4]
  cell viability: 97.5%
[5]
  cell viability: 86%
[6]
  cell viability: 96.7%
[7]
  cell viability: 88.8%
[8]
  cell viability: 99.5%
[9]
  cell viability: 74.5%
[10]
  cell viability: 84.9%
[11]
  cell viability: 22.7%
[12]
  cell viability: 72.7%
[13]
  cell viability: 86.4%
[14]
  cell viability: 73.6%
[15]
  cell viability: 83.5%
[16]
  cell viability: 79.6%
[17]
  cell viability: 79.8%
[18]
  cell viability: 79.6%
[19]
  cell viability: 79%
[20]
  cell viability: 15.8%
[21]
  cell viability: 81.3%
[22]
  cell viability: 91.8%
[23]
  cell viability: 61.9%
[24]
  cell viability: 63.7%
[25]
  cell viability: 69.4%
[26]
  cell viability: 73.9%
[27]
  cell viability: 73.8%
[28]
  cell viability: 76.9%
[29]
  cell viability: 68.9%
[30]
  cell viability: 75.5%
[31]
  cell viability: 23.6%
[32]
  cell viability: 76.9%
[33]
  cell viability: 76.2%

## COc1ncnc(N[S+](=O)([O-])c2ccc(N)cc2)c1OC
[1]
  cell viability: 111%
[2]
  cell viability: 111%
[3]
  cell viability: 104%
[4]
  cell viability: 122%
[5]
  cell viability: 102%
[6]
  cell viability: 123%
[7]
  cell viability: 97.6%
[8]
  cell viability: 61.4%
[9]
  cell viability: 31.5%
[10]
  cell viability: 8.89%
[11]
  cell viability: 7.76%
[12]
  cell viability: 97.7%
[13]
  cell viability: 107%
[14]
  cell viability: 107%
[15]
  cell viability: 98%
[16]
  cell viability: 101%
[17]
  cell viability: 112%
[18]
  cell viability: 103%
[19]
  cell viability: 106%
[20]
  cell viability: 51.3%
[21]
  cell viability: 24%
[22]
  cell viability: 13.5%
[23]
  cell viability: 103%
[24]
  cell viability: 115%
[25]
  cell viability: 97.2%
[26]
  cell viability: 110%
[27]
  cell viability: 117%
[28]
  cell viability: 119%
[29]
  cell viability: 123%
[30]
  cell viability: 108%
[31]
  cell viability: 70.9%
[32]
  cell viability: 36.7%
[33]
  cell viability: 19%
